Source: PMC9795544, “Identifying Novel Inhibitors for Hepatic Organic Anion Transporting Polypeptides by Machine Learning-Based Virtual Screening” (Journal of Chemical Information and Modeling, 2022)
Read-outs that look alike come from different tables or passages of the source.

Columns and labels:
Format in all cases: cell-based
[1] = target: T1, OATP2B1 (Homo sapiens, UniProt O94956); assay: Pyranine transport inhibition in A431 cells overexpressing OATP2B1; details: category by concentration needed for 50% inhibition, pyranine 20 μM, 15 min, pH 5.5
T1 construct: expressed in transfected cells; host or cells: A431 cells
T1 sequence (O94956 1-709): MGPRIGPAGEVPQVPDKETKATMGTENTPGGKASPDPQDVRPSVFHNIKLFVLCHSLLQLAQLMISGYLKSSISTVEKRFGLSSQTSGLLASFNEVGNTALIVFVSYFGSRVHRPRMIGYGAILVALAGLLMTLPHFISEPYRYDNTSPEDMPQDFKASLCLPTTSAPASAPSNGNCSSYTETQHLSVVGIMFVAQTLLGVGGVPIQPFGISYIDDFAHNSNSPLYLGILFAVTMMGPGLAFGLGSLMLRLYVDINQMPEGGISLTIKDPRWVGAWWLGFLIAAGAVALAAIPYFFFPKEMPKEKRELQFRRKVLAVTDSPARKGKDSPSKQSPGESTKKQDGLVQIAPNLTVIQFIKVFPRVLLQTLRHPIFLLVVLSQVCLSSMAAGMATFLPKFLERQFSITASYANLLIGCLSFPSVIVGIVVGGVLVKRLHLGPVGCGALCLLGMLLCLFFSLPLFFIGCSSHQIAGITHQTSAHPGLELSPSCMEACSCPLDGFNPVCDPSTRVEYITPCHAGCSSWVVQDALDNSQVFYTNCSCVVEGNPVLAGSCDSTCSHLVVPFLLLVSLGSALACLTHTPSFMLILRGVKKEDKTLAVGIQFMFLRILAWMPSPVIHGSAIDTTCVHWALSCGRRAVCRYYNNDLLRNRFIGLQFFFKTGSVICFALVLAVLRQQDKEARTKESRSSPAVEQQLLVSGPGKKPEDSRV
Protocol: (§1) A431 cells overexpressing OATP1B1, OATP1B3, or OATP2B1 or their mock transfected controls were generated previously[30] and maintained in Dulbecco’s modified Eagle medium (DMEM, Gibco, Thermofisher Scientific, Waltham, MA, US) supplemented with 10% fetal bovine serum, 2 mM L-glutamine, 100 units/mL penicillin, and 100 μg/mL streptomycin. Expression and function of OATPs in the cell lines were checked regularly.
(§2) Interaction with OATP1B1, OATP1B3, or OATP2B1 was tested in an indirect transport assay using pyranine (8-hydroxypyrene-1,3,6-trisulfonic acid trisodium salt, H1529, Sigma, Merck, Budapest, Hungary) as the test substrate[31],[32] A431 cells overexpressing OATP1B1, OATP1B3, or OATP2B1 or their mock transfected controls were seeded on 96-well plates in a density of 8 × 10^4 cells per well in 200 μL of cell culture medium 1 day prior to the transport measurements. […] The transport reaction was started by the addition of 50 μL of uptake buffer containing pyranine in a final concentration of 10 μM (OATP1B1) or 20 μM (OATP1B3 and OATP2B1), and the cells were further incubated at 37 °C for 15 min (OATP1B1 and OATP2B1) or 30 min (OATP1B3). The reaction was stopped by removing the supernatant. After repeated washing with ice-cold PBS, fluorescence was determined in an Enspire plate reader (PerkinElmer, Waltham, MA) with excitation/emission wavelengths of 460/510 nm. OATP-dependent transport was calculated by extracting fluorescence measured in mock transfected cells and normalized to the fluorescence signal obtained in the absence of the tested compounds (100%). Experiments were repeated in at least three biological replicates.

[2] = target: T2, OATP1B3 (Homo sapiens, UniProt Q9NPD5); assay: Pyranine transport inhibition in A431 cells overexpressing OATP1B3; details: initial three-point screen (1, 10, 100 μM), category by concentration needed for 50% inhibition, pyranine 20 μM, 30 min, pH 5.5; for IC50: read-out: IC50 (μM) OATP1B3
T2 construct: expressed in transfected cells; host or cells: A431 cells
T2 sequence (Q9NPD5 1-702): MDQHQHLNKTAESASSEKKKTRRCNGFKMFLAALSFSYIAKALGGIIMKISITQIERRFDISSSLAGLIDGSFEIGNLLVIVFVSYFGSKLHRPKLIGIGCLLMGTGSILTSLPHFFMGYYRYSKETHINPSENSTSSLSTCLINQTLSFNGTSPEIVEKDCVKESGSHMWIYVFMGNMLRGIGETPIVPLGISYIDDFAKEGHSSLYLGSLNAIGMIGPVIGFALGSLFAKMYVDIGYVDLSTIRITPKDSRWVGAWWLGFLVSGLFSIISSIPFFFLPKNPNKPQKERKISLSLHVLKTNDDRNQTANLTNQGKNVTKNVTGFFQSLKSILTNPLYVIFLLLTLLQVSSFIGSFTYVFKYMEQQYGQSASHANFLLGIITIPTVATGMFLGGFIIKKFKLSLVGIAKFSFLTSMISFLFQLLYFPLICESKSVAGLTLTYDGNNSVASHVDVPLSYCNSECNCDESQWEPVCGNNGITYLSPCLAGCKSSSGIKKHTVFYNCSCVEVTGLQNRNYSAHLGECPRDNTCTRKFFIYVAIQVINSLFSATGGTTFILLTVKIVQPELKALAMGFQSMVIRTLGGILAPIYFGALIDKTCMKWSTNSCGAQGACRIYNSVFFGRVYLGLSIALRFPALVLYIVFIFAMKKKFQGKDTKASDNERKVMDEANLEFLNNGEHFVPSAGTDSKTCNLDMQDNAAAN
Protocol: as §1, §2

[3] = target: T3, OATP1B1 (Homo sapiens, UniProt Q9Y6L6); assay: Pyranine transport inhibition in A431 cells overexpressing OATP1B1
T3 construct: expressed in transfected cells; host or cells: A431 cells
T3 sequence (Q9Y6L6 1-691): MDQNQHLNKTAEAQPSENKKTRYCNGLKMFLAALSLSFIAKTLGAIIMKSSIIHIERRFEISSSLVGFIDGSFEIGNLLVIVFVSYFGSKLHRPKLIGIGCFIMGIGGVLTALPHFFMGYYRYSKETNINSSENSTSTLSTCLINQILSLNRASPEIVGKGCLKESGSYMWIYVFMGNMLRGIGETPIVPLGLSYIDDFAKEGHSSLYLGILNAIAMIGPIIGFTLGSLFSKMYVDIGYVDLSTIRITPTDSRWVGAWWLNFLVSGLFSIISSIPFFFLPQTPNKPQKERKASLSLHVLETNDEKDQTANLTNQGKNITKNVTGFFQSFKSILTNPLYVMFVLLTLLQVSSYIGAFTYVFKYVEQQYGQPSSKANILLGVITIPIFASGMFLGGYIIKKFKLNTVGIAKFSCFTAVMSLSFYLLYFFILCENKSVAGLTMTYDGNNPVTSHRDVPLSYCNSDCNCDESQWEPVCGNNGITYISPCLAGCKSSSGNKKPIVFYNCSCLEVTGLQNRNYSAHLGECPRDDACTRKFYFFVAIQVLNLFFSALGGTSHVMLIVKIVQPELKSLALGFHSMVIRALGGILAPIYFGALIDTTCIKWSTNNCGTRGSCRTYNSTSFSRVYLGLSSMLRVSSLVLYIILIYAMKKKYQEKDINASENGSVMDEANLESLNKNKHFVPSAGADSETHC
Protocol: as §1, §2

[4] = initial three-point screen (1, 10, 100 μM), read-out: IC50 (μM) OATP2B1
[5] = initial three-point screen (1, 10, 100 μM), category by concentration needed for 50% inhibition, pyranine 10 μM, 15 min, pH 5.5, read-out: IC50 (μM) OATP1B1

Row | Structure (SMILES) | IC50 ([1]; IC50 (μM) OATP2B1, initial three-point screen (1, 10, 100 μM)) [µM] | IC50 (μM) OATP1B3 [2] | IC50 [3] [µM] | IC50 [1, 4] [µM] | IC50 [2] [µM] | IC50 [3, 5] [µM]
1 | O=C(NCc1ccccn1)c1ccc2c(c1)S(=O)(=O)c1ccccc1C2=O [B5, O=C(NCc1ccccn1)c2ccc3C(=O)c4ccccc4S(=O)(=O)c3c2] | 1 to 10 | Activated | > 10 |  |  | 
2 | O=C(CSc1nc2cc(C(F)(F)F)ccc2n1Cc1ccccc1)c1ccc[nH]1 [B6, FC(F)(F)c1ccc2c(c1)nc(SCC(=O)c3ccc[nH]3)n2Cc4ccccc4] |  |  |  | > 10 | > 10 | > 10
3 | Cc1cc(C)n2nc(SCc3ccccc3C(=O)NCCc3ccc4c(c3)OCCO4)nc2n1 [C2, Cc1cc(C)n2nc(SCc3ccccc3C(=O)NCCc4ccc5OCCOc5c4)nc2n1] |  |  |  | 1 to 10 |  | 1 to 10
4 | CC(OC(=O)c1cc(Cl)c2c(c1)OCCCO2)C(=O)c1ccc2c(c1)NC(=O)CO2 (stereo not drawn) [D4, CC(OC(=O)c1cc(Cl)c2OCCCOc2c1)C(=O)c3ccc4OCC(=O)Nc4c3] |  |  |  | 1 to 10 |  | 
5 | O=C(OCC(=O)N(C1CCCCC1)C1CCCCC1)c1nn(-c2ccccc2)c(=O)c2ccccc12 [D5, O=C(COC(=O)C1=NN(C(=O)c2ccccc12)c3ccccc3)N(C4CCCCC4)C5CCCCC5] |  |  |  |  | > 10 | > 10
6 | O=C(CN1C(=O)NC2(CCCc3ccccc32)C1=O)Nc1nnc(C23CC4CC(CC(C4)C2)C3)s1 (stereo not drawn) [D6, O=C(CN1C(=O)NC2(CCCc3ccccc23)C1=O)Nc4nnc(s4)C56CC7CC(CC(C7)C5)C6] |  |  |  | 1 to 10 |  | > 10
7 | CC1CCN(c2nnc(SCC(=O)NCC3COc4ccccc4O3)n2C2CC2)CC1 (stereo not drawn) [E4, CC1CCN(CC1)c2nnc(SCC(=O)NCC3COc4ccccc4O3)n2C5CC5] |  |  |  | 1 to 10 | > 10 | 
8 | O=C(Nc1ccccc1)c1ccccc1OCC(=O)N1CCN(C(=O)c2ccco2)CC1 [F2, O=C(COc1ccccc1C(=O)Nc2ccccc2)N3CCN(CC3)C(=O)c4occc4] |  |  |  | 1 to 10 | > 10 | 
9 | O=C(CCc1ncc(-c2c(F)cccc2F)o1)N1CCN(S(=O)(=O)c2ccccc2F)CC1 [G3, Fc1cccc(F)c1c2oc(CCC(=O)N3CCN(CC3)S(=O)(=O)c4ccccc4F)nc2] |  |  |  | 1 to 10 | > 10 | 
10 | CC(OC(=O)C1CCN(S(=O)(=O)c2ccc3c(c2)OCCO3)CC1)C(=O)Nc1cccc(C#N)c1 (stereo not drawn) [H3, CC(OC(=O)C1CCN(CC1)S(=O)(=O)c2ccc3OCCOc3c2)C(=O)Nc4cccc(c4)C#N] |  |  |  | 1 to 10 |  | 1 to 10
